In brackets after ≈: the same amount, converted by molar mass.
Key:
E. coli biofilms = assay: Biofilm growth assay (spreading biofilm on semi-solid agar), E. coli; assay type: cell-based; settings: biofilm growth assay, overnight 37° C., vs negative controls, Tables 1-5; for IC85: Escherichia coli, read-out: E. coli: concentration that reduces the area of the spreading biofilm by greater than or equal to 85%
Outline: (§1)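 Compound added to semi-solid agar: M8 with 0.2% glucose, 100 μM CaCl2, 1 mM MgSO4, 0.5% Casamino acids (P. aeruginosa) or LB with 0.6% agar, 0.5% glucose (E. coli). Center-inoculated with 5 μL overnight culture, incubated overnight at 37 °C; value is concentration (μg/ml) reducing spreading area ≥85% versus negative controls.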

P. aeruginosa biofilms = assay: Biofilm growth assay (spreading biofilm on semi-solid agar), P. aeruginosa; assay type: cell-based; settings: biofilm growth assay, overnight 37° C., vs negative controls, Tables 1-5; for IC85: Pseudomonas aeruginosa, read-out: P. aeruginosa: concentration that reduces the area of the spreading biofilm by greater than or equal to 85%
Outline: as §1

Row | Molecule | E. coli: concentration that reduces the area of the spreading biofilm by greater than or equal to 85% (E. coli biofilms) [µg/mL] | P. aeruginosa: concentration that reduces the area of the spreading biofilm by greater than or equal to 85% (P. aeruginosa biofilms) [µg/mL] | IC85 (E. coli biofilms) [µg/mL] | IC85 (P. aeruginosa biofilms) [µg/mL]
1 | Cn1cc(C2=C3[C@@H]4CC(C)(C)CC[C@]4(C(=O)O)CC[C@@]3(C)[C@]3(C)CC[C@H]4C(C)(C)c5n[nH]c(N)c5C[C@]4(C)C3C2)cn1 (stereo partly drawn) [Example 28, (4aS,6aS,6bR,8aR,13aR,15bS)-12-Amino-2,2,6a,6b,9,9,13a-heptamethyl-15-(1-methyl-1H-pyrazol-4-yl)-2,3,4,4a,5,6,6a,6b,7,8,8a,9,11,13,13a,13b,14,15b-octadecahydro-1H-chryseno[1,2-f]indazole-4-a-carboxylic acid] | 2 | 1 | – | –
2 | CC1(C)CC[C@]2(C(=O)O)CC[C@]3(C)C(=C(c4cccc(O)c4)CC4[C@@]5(C)Cc6c(n[nH]c6N)C(C)(C)C5CC[C@]43C)C2C1 (stereo partly drawn) [Example 16, (4aS,6aS,6bR,13aR)-12-Amino-15-(3-hydroxyphenyl)-2,2,6a,6b,9,9,13a-heptamethyl-2,3,4,4a,5,6,6a,6b,7,8,8a,9,11,13,13a,13b,14,15b-octadecahydro-1H-chryseno[1,2-f]indazole-4-a-carboxylic acid] | – | – | 2 (≈ 3.41 µM) | 1 (≈ 1.71 µM)
3 | Lupeol [reference compound] | >8 | >16 | – | –
4 | C[C@@H]1CC[C@]2(C(=O)O)CC[C@]3(C)C(=CCC4[C@@]5(C)C[C@H](CO)[C@H](O)C(C)(C)C5CC[C@]43C)C2[C@H]1C (stereo partly drawn) [A] | – | – | > 8 | 8 (≈ 16.4 µM)
5 | CC1(C)CC[C@]2(c3nnc(O)s3)CC[C@]3(C)C(=CCC4[C@@]5(C)Cc6c(n[nH]c6N)C(C)(C)C5CC[C@]43C)C2C1 (stereo partly drawn) [Compound 78, 5-((4aS,6aS,6bR,13aR)-12-Amino-2,2,6a,6b,9,9,13a-heptamethyl-2,3,4,4a,5,6,6a,6b,7,8,8a,9,11,13,13a,13b,14,15b-octadecahydro-1H-chryseno[1,2-f]indazol-4-a-yl)-1,3,4-thiadiazol-2-ol] | 1 | >1 | – | –
6 | CC1(C)CC[C@]2(C(=O)O)CC[C@]3(C)C(=C(c4coc(CN5CCOCC5)c4)CC4[C@@]5(C)Cc6c(n[nH]c6N)C(C)(C)[C@@H]5CC[C@]43C)[C@@H]2C1 (stereo partly drawn) [Example 40, (4aS,6aS,6bR,8aR,13aR,15bS)-12-Amino-2,2,6a,6b,9,9,13a-heptamethyl-15-(5-(morpholinomethyl)furan-3-yl)-2,3,4,4a,5,6,6a,6b,7,8,8a,9,11,13,13a,13b,14,15b-octadecahydro-1H-chryseno[1,2-f]indazole-4-a-carboxylic acid] | 2 | 0.5 | – | –
7 | CC1(C)CC[C@]2(c3n[nH]c(O)c3F)CC[C@]3(C)C(=CCC4[C@@]5(C)Cc6c(n[nH]c6N)C(C)(C)C5CC[C@]43C)C2C1 (stereo partly drawn) [Compound 83, 3-((4aS,6aS,6bR,13aR)-12-Amino-2,2,6a,6b,9,9,13a-heptamethyl-2,3,4,4a,5,6,6a,6b,7,8,8a,9,11,13,13a,13b,14,15b-octadecahydro-1H-chryseno[1,2-f]indazol-4-a-yl)-4-fluoro-1H-pyrazol-5-ol] | 0.5 | 0.25 | – | –
8 | CC1=C2[C@@H]3CC(C)(C)CC[C@]3(C(=O)O)CC[C@@]2(C)[C@]2(C)CC[C@H]3C(C)(C)c4n[nH]c(N)c4C[C@]3(C)C2C1 (stereo partly drawn) [Example 4, (4aS,6aS,6bR,8aR,13aR,15bS)-12-Amino-2,2,6a,6b,9,9,13a,15-octamethyl-2,3,4,4a,5,6,6a,6b,7,8,8a,9,11,13,13a,13b,14,15b-octadecahydro-1H-chryseno[1,2-f]indazole-4-a-carboxylic acid] | – | – | 1 (≈ 1.97 µM) | 0.25 (≈ 0.492 µM)
9 | CC1(C)CC[C@]2(c3cc(N)[nH]n3)CC[C@]3(C)C(=CCC4[C@@]5(C)Cc6c(n[nH]c6N)C(C)(C)C5CC[C@]43C)C2C1 (stereo partly drawn) [Compound 60, (4aS,6aS,6bR,13aR)-4-a-(5-Amino-1H-pyrazol-3-yl)-2,2,6a,6b,9,9,13a-heptamethyl-2,3,4,4a,5,6,6a,6b,7,8,8a,9,11,13,13a,13b,14,15b-octadecahydro-1H-chryseno[1,2-f]indazol-12-amine] | 1 | 0.5 | – | –
10 | CC1(C)CC[C@]2(c3n[nH]c(O)c3CCO)CC[C@]3(C)C(=CCC4[C@@]5(C)Cc6c(n[nH]c6N)C(C)(C)C5CC[C@]43C)C2C1 (stereo partly drawn) [Compound 81, 3-((4aS,6aS,6bR,13aR)-12-Amino-2,2,6a,6b,9,9,13a-heptamethyl-2,3,4,4a,5,6,6a,6b,7,8,8a,9,11,13,13a,13b,14,15b-octadecahydro-1H-chryseno[1,2-f]indazol-4-a-yl)-4-(2-hydroxyethyl)-1H-pyrazol-5-ol] | 1 | 0.5 | – | –
11 | CC1(C)CC[C@]2(C(=O)O)CC[C@]3(C)C(=C(c4ccc5c(c4)CCN5)CC4[C@@]5(C)Cc6c(n[nH]c6N)C(C)(C)[C@@H]5CC[C@]43C)[C@@H]2C1 (stereo partly drawn) [Example 11, (4aS,6aS,6bR,13aR)-12-Amino-15-(indolin-5-yl)-2,2,6a,6b,9,9,13a-heptamethyl-2,3,4,4a,5,6,6a,6b,7,8,8a,9,11,13,13a,13b,14,15b-octadecahydro-1H-chryseno[1,2-f]indazole-4-a-carboxylic acid] | – | – | 0.5 (≈ 0.818 µM) | 0.5 (≈ 0.818 µM)
12 | CC1(C)CC[C@]2(C(=O)n3ccnc3N)CC[C@]3(C)C(=CCC4[C@@]5(C)Cc6c(n[nH]c6N)C(C)(C)C5CC[C@]43C)C2C1 (stereo partly drawn) [Compound 73, (2-Amino-1H-imidazol-1-yl)((4aS,6aS,6bR,13aR)-12-amino-2,2,6a,6b,9,9,13a-heptamethyl-2,3,4,4a,5,6,6a,6b,7,8,8a,9,11,13,13a,13b,14,15b-octadecahydro-1H-chryseno[1,2-f]indazol-4-a-yl)methanone] | – | – | 1 (≈ 1.79 µM) | 1 (≈ 1.79 µM)
13 | C[C@H]1[C@H](C)CC[C@]2(C(=O)O)CC[C@]3(C)C(=CC[C@@H]4[C@@]5(C)CC[C@H](O)C(C)(C)[C@@H]5CC[C@]43C)[C@H]12 [Ursolic acid, ursolic acid, reference compound] | – | – | 8 (≈ 17.5 µM) | 8 (≈ 17.5 µM)
14 | CC1(C)CC[C@]2(C(=O)O)CC[C@]3(C)C(=C(c4ccc(N5CCC(N)C5)nc4)CC4[C@@]5(C)Cc6c(n[nH]c6N)C(C)(C)C5CC[C@]43C)C2C1 (stereo partly drawn) [Example 58, (4a-8,6a8,6bR,13aR)-12-Amino-15-(6-(3-aminopyrrolidin-1-yl)pyridin-3-yl)-2,2,6a,6b,9,9,13a-heptamethyl-2,3,4,4a,5,6,6a,6b,7,8,8a,9,11,13,13a,13b,14,15b-octadecahydro-1H-chryseno[1,2-f]indazole-4-a-carboxylic acid] | 2 | 1 | – | –
15 | CC1(C)CC[C@]2(C(=O)O)CC[C@]3(C)C(=C(c4ccc(N5CCC(N)CC5)nc4)CC4[C@@]5(C)Cc6c(n[nH]c6N)C(C)(C)C5CC[C@]43C)C2C1 (stereo partly drawn) [Example 57, (4aS,6aS,6bR,13aR)-12-Amino-15-(6-(4-aminopiperidin-1-yl)pyridin-3-yl)-2,2,6a,6b,9,9,13a-heptamethyl-2,3,4,4a,5,6,6a,6b,7,8,8a,9,11,13,13a,13b,14,15b-octadecahydro-1H-chryseno[1,2-f]indazole-4-a-carboxylic acid] | 1 | >2 | – | –
16 | CC1(C)CC[C@]2(C(=O)O)CC[C@]3(C)C(=C(c4coc(CN5CCCC5)c4)CC4[C@@]5(C)Cc6c(n[nH]c6N)C(C)(C)C5CC[C@]43C)C2C1 (stereo partly drawn) [Example 38, (4aS,6aS,6bR,13aR)-12-Amino-2,2,6a,6b,9,9,13a-heptamethyl-15-(5-(pyrrolidin-1-ylmethyl)furan-3-yl)-2,3,4,4a,5,6,6a,6b,7,8,8a,9,11,13,13a,13b,14,15b-octadecahydro-1H-chryseno[1,2-f]indazole-4-a-carboxylic acid] | 2 | 1 | – | –
17 | CC1(C)CC[C@]2(C(=O)O)CC[C@]3(C)C(=C(c4cccc(CN)c4)CC4[C@@]5(C)Cc6c(n[nH]c6N)C(C)(C)C5CC[C@]43C)C2C1 (stereo partly drawn) [Example 18, (4aS,6aS,6bR,13aR)-12-Amino-15-(3-(aminomethyl)phenyl)-2,2,6a,6b,9,9,13a-heptamethyl-2,3,4,4a,5,6,6a,6b,7,8,8a,9,11,13,13a,13b,14,15b-octadecahydro-1H-chryseno[1,2-f]indazole-4-a-carboxylic acid] | 1 | 0.5 | – | –
18 | CC1(C)CC[C@]2(C(=O)O)CC[C@]3(C)C(=C(c4cccc(C(N)=O)c4)CC4[C@@]5(C)Cc6c(n[nH]c6N)C(C)(C)C5CC[C@]43C)C2C1 (stereo partly drawn) [Example 19, (4aS,6aS,6bR,13aR)-12-Amino-15-(3-carbamoylphenyl)-2,2,6a,6b,9,9,13a-heptamethyl-2,3,4,4a,5,6,6a,6b,7,8,8a,9,11,13,13a,13b,14,15b-octadecahydro-1H-chryseno[1,2-f]indazole-4-a-carboxylic acid] | 1 | 1 | – | –

Reference: patent US8324264B1, “Inhibitors of bacterial biofilms and related methods” (Sequoia Sciences, Inc., priority 2011, dated 2012)
